Test results reported in ChEMBL document CHEMBL1201862, “PubChem BioAssay data set” (2004).
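Five compound concentrations were applied to cells in 96-well plates for 48 hours; endpoints were derived by simple linear interpolation of the resulting dose-response curve. GI50 marks 50% less growth.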 Activity calls are given as the source filed them. Rule as the data show it: active = GI50 up to about 1.1 µM and inactive = higher.

Key:
Test in all cases: NCI-60 cell line screen, 48 h
SK-MEL-28 = tested on: SK-MEL-28
SR = tested on: SR
UACC-62 = tested on: UACC-62
UO-31 = tested on: UO-31
K562 = tested on: K562
T47D = tested on: T47D
MDA-N = tested on: MDA-N
ACHN = tested on: ACHN
786-0 = tested on: 786-0
COLO 205 = tested on: COLO 205
NCI-H522 = tested on: NCI-H522
OVCAR-5 = tested on: OVCAR-5
IGROV-1 = tested on: IGROV-1
MDA-MB-231 = tested on: MDA-MB-231
MDA-MB-435 = tested on: MDA-MB-435
MCF7 = tested on: MCF7
SNB-75 = tested on: SNB-75
SF-295 = tested on: SF-295
NCI-H460 = tested on: NCI-H460
SF-539 = tested on: SF-539

Measured: GI50

Cc1sc2nc3n(c(=O)c2c1C)N=CN(c1ccc(F)cc1)C3
inactive: SK-MEL-28 > 100 µM | SR > 100 µM | UACC-62 > 100 µM | UO-31 > 100 µM | K562 > 100 µM | T47D > 100 µM | MDA-N > 100 µM | ACHN 29 µM | 786-0 19.5 µM | COLO 205 > 100 µM | NCI-H522 69.3 µM | OVCAR-5 > 100 µM | IGROV-1 61.9 µM | MDA-MB-231 59 µM | MDA-MB-435 > 100 µM | MCF7 > 100 µM | SNB-75 42.4 µM | SF-295 72.9 µM | NCI-H460 44.5 µM

CSc1nc(C)c2c(n1)SCC2
inactive: SK-MEL-28 > 10 µM | SR > 10 µM | UACC-62 > 10 µM | UO-31 > 10 µM | K562 > 10 µM | T47D > 10 µM | MDA-N > 10 µM | ACHN > 10 µM | 786-0 > 10 µM | COLO 205 > 10 µM | OVCAR-5 > 10 µM | IGROV-1 > 10 µM | MDA-MB-231 > 10 µM | MDA-MB-435 > 10 µM | MCF7 > 10 µM | SNB-75 > 10 µM | SF-295 > 10 µM | SF-539 > 10 µM | NCI-H460 > 10 µM

C[C@@H]1OC(=O)/C(=C\N(C)C)[C@H]2CC(=O)N(CCc3cn(S(=O)(=O)C(F)(F)F)c4ccccc34)C[C@H]12
inactive: SK-MEL-28 > 100 µM | UO-31 > 100 µM | K562 > 100 µM | T47D > 100 µM | MDA-N > 100 µM | ACHN > 100 µM | 786-0 > 100 µM | COLO 205 > 100 µM | NCI-H522 > 100 µM | OVCAR-5 > 100 µM | IGROV-1 > 100 µM | MDA-MB-231 > 100 µM | MDA-MB-435 > 100 µM | MCF7 > 100 µM | SNB-75 > 100 µM | SF-295 > 100 µM | SF-539 > 100 µM | NCI-H460 > 100 µM

CC(CO)(CO)Nc1ncnc2ccccc12
inactive: SK-MEL-28 > 100 µM | SR 66.1 µM | UACC-62 > 100 µM | UO-31 > 100 µM | K562 > 100 µM | T47D > 100 µM | MDA-N > 100 µM | ACHN > 100 µM | 786-0 > 100 µM | NCI-H522 > 100 µM | OVCAR-5 > 100 µM | IGROV-1 > 100 µM | MDA-MB-231 > 100 µM | MDA-MB-435 > 100 µM | SNB-75 > 100 µM | SF-295 > 100 µM | NCI-H460 > 100 µM

CCOC(=O)c1ccc(/N=c2/[nH]c3ccccc3s/c2=N/c2ccc(C(=O)OCC)cc2)cc1
inactive: SK-MEL-28 > 100 µM | SR > 100 µM | UACC-62 > 100 µM | UO-31 > 100 µM | K562 > 100 µM | T47D > 100 µM | MDA-N > 100 µM | ACHN 29.1 µM | 786-0 25.4 µM | COLO 205 > 100 µM | NCI-H522 5.24 µM | OVCAR-5 > 100 µM | IGROV-1 > 100 µM | MDA-MB-231 > 100 µM | MDA-MB-435 > 100 µM | SNB-75 48 µM | SF-295 83 µM | SF-539 72.8 µM | NCI-H460 40.6 µM

COc1ccc2c(c1)CC[C@@H]1[C@@H]2CC[C@]2(C)[C@@H](O)/C(=C/c3ccncc3)C[C@@H]12
inactive: SK-MEL-28 15.3 µM | UACC-62 13.8 µM | UO-31 14 µM | T47D 5.14 µM | MDA-N 12.4 µM | ACHN 26.5 µM | 786-0 14.2 µM | COLO 205 3.94 µM | NCI-H522 14 µM | OVCAR-5 12.5 µM | IGROV-1 14.9 µM | MDA-MB-231 14.2 µM | MDA-MB-435 9.77 µM | MCF7 16.6 µM | SNB-75 10.4 µM | SF-295 10.5 µM | NCI-H460 14.2 µM

C[C@H]1C[C@H](C)c2ccccc2N(C)/C1=N\c1ccccc1
inactive: SK-MEL-28 28.1 µM | SR 24.4 µM | UACC-62 23.5 µM | UO-31 39 µM | K562 66.7 µM | T47D 32.8 µM | MDA-N 23.4 µM | ACHN 34.4 µM | 786-0 22.9 µM | COLO 205 18.4 µM | OVCAR-5 21.4 µM | IGROV-1 21.9 µM | MDA-MB-231 14.8 µM | MDA-MB-435 20.4 µM | MCF7 25.1 µM | SNB-75 57.1 µM | SF-295 26.4 µM | SF-539 30.2 µM | NCI-H460 15.8 µM

CCOC(=O)C1(C/C=C\CBr)CCCCCCC1=O (stereo not drawn)
inactive: SK-MEL-28 > 100 µM | UACC-62 > 100 µM | UO-31 > 100 µM | T47D > 100 µM | MDA-N > 100 µM | ACHN > 100 µM | 786-0 > 100 µM | COLO 205 > 100 µM | NCI-H522 > 100 µM | OVCAR-5 > 100 µM | IGROV-1 > 100 µM | MDA-MB-231 > 100 µM | MDA-MB-435 > 100 µM | MCF7 > 100 µM | SNB-75 > 100 µM | SF-295 > 100 µM | SF-539 > 100 µM

CCC(c1c[nH]c2ccc(Br)cc12)c1c[nH]c2ccc(Br)cc12
inactive: SK-MEL-28 11.5 µM | UACC-62 10.2 µM | UO-31 6.97 µM | K562 2.54 µM | T47D 2.3 µM | MDA-N 4.33 µM | ACHN 3.65 µM | 786-0 3.56 µM | COLO 205 2.42 µM | NCI-H522 4.44 µM | OVCAR-5 3.78 µM | IGROV-1 4.41 µM | MDA-MB-231 11.1 µM | MDA-MB-435 3.13 µM | MCF7 3.98 µM | SF-295 5.92 µM | SF-539 12.5 µM | NCI-H460 2.63 µM

CO/C(=N\N=C(/C)C(F)(F)F)c1ccncc1
inactive: SK-MEL-28 > 100 µM | SR > 100 µM | UACC-62 > 100 µM | UO-31 > 100 µM | K562 > 100 µM | T47D > 100 µM | MDA-N > 100 µM | COLO 205 > 100 µM | NCI-H522 > 100 µM | OVCAR-5 > 100 µM | IGROV-1 > 100 µM | MDA-MB-231 > 100 µM | MDA-MB-435 > 100 µM | MCF7 > 100 µM | SNB-75 > 100 µM | NCI-H460 > 100 µM

N#Cc1c2ccc([N+](=O)[O-])cc2c(=O)n2c1sc1ccccc12
inactive: SK-MEL-28 17.6 µM | SR 3.94 µM | UACC-62 28 µM | UO-31 22.6 µM | K562 11.1 µM | T47D 14.8 µM | MDA-N 80.2 µM | ACHN 32.4 µM | 786-0 24.2 µM | COLO 205 6.87 µM | MDA-MB-231 17.2 µM | MDA-MB-435 57.7 µM | SNB-75 42.2 µM | NCI-H460 27.5 µM
